The values that follow are results of earlier work, collected in US20250205209A1, “Methods of Treating a Subject for Myalgic Encephalomyelitis/Chronic Fatigue Syndrome (ME/CFS) and Compositions for Use in The Same” (INCELLDX, INC., priority 2022, published 2025).

For data set [1] the following is noted: HIV patients; >5 year follow-up of the MOTIVATE trials.
For a further data set, the system named is R5-tropic HIV-1. The settings on record: individuals with R5-tropic HIV-1; MOTIVATE 1 and MOTIVATE 2.

Turning to `Cc1nnc(C(C)C)n1[C@@H]1C[C@H]2CC[C@@H](C1)N2CC[C@H](NC(=O)C1CCC(F)(F)CC1)c1ccccc1` [Maraviroc, 4,4-difluoro-N-[(1S)-3-[(1S,5R)-3-(3-methyl-5-propan-2-yl-1,2,4-triazol-4-yl)-8-azabicyclo[3.2.1]octan-8-yl]-1-phenylpropyl]cyclohexane-1-carboxamide], in data set [1], the “instances of death and other health threats such as hepatic failure and myocardial infarctions” value was “limited instances of death and other health threats”. Also, the HIV viral loads entry in the data set on R5-tropic HIV-1 was “lower levels of HIV viral loads”.
